According to ChEMBL document CHEMBL1201862, “PubChem BioAssay data set” (2004):
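Five compound concentrations were applied to cells in 96-well plates for 48 hours; endpoints were derived by simple linear interpolation of the resulting dose-response curve. GI50 marks 50% less growth.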 The source made the active and inactive calls. Cut-off read from the data, not from the text of the source: active = GI50 up to about 1.1 µM and inactive = higher. Where a SMILES comes first, the peptide text is derived from it. The star is where a group is joined. Boc = CC(C)(C)OC(=O)*; OSu = O=C1CCC(=O)N1O*

Key:
Experiment in all cases: NCI tumour cell line growth inhibition, 48 h
NCI-H226 = test system: NCI-H226
A549 = test system: A549
DU-145 = test system: DU-145
UO-31 = test system: UO-31
M14 = test system: M14
OVCAR-4 = test system: OVCAR-4
SK-MEL-5 = test system: SK-MEL-5
CAKI-1 = test system: CAKI-1
SF-295 = test system: SF-295
KM12 = test system: KM12
Malme-3M = test system: Malme-3M
OVCAR-8 = test system: OVCAR-8
MDA-MB-231 = test system: MDA-MB-231
MDA-MB-435 = test system: MDA-MB-435
LOX IMVI = test system: LOX IMVI
HCC 2998 = test system: HCC 2998
SNB-19 = test system: SNB-19
SN12C = test system: SN12C
HCT-15 = test system: HCT-15
RPMI-8226 = test system: RPMI-8226

Structure (SMILES)	GI50 (NCI-H226)	GI50 (A549)	GI50 (DU-145)	GI50 (UO-31)	GI50 (M14)	GI50 (OVCAR-4)	GI50 (SK-MEL-5)	GI50 (CAKI-1)	GI50 (SF-295)	GI50 (KM12)	GI50 (Malme-3M)	GI50 (OVCAR-8)	GI50 (MDA-MB-231)	GI50 (MDA-MB-435)	GI50 (LOX IMVI)	GI50 (HCC 2998)	GI50 (SNB-19)	GI50 (SN12C)	GI50 (HCT-15)	GI50 (RPMI-8226)
N#CCCC(C=O)(CCC#N)CCC#N	> 100 µM (inactive)	> 100 µM (inactive)	> 100 µM (inactive)	> 100 µM (inactive)	> 100 µM (inactive)	> 100 µM (inactive)	> 100 µM (inactive)	> 100 µM (inactive)	> 100 µM (inactive)	> 100 µM (inactive)	> 100 µM (inactive)	> 100 µM (inactive)	> 100 µM (inactive)	> 100 µM (inactive)	> 100 µM (inactive)	> 100 µM (inactive)	> 100 µM (inactive)	> 100 µM (inactive)	> 100 µM	
O=CC12CCCN1CCC2	76.4 µM (inactive)	> 100 µM (inactive)	> 100 µM (inactive)	> 100 µM (inactive)	> 100 µM (inactive)	> 100 µM (inactive)	> 100 µM (inactive)	> 100 µM (inactive)	> 100 µM (inactive)		> 100 µM (inactive)		> 100 µM (inactive)	> 100 µM (inactive)	> 100 µM (inactive)	> 100 µM (inactive)	> 100 µM (inactive)	> 100 µM (inactive)	> 100 µM	
O=S(=O)(c1ccccc1)[C@@H]1[C@H]2C=C[C@](CS)(O2)[C@H]1S(=O)(=O)c1ccccc1	> 100 µM (inactive)	> 100 µM (inactive)	> 100 µM (inactive)	> 100 µM (inactive)	> 100 µM (inactive)	42.1 µM (inactive)	> 100 µM (inactive)	31.6 µM (inactive)	> 100 µM (inactive)	> 100 µM (inactive)	> 100 µM (inactive)	50.1 µM (inactive)	> 100 µM (inactive)	46.2 µM (inactive)	44.6 µM (inactive)	> 100 µM (inactive)	> 100 µM (inactive)	38.2 µM (inactive)	15.2 µM	
CC(NC(=O)C(NC(=O)OC(C)(C)C)C(C)C)C(=O)NCC(=O)ON1C(=O)CCC1=O (stereo not drawn) (Boc-Val-Ala-Gly-OSu; configuration not given here)	> 100 µM (inactive)	> 100 µM (inactive)	> 100 µM (inactive)	> 100 µM (inactive)	88.1 µM (inactive)		> 100 µM (inactive)	> 100 µM (inactive)	> 100 µM (inactive)	> 100 µM (inactive)	> 100 µM (inactive)	> 100 µM (inactive)	> 100 µM (inactive)	> 100 µM (inactive)		> 100 µM (inactive)	> 100 µM (inactive)	> 100 µM (inactive)	> 100 µM	> 100 µM (inactive)
CC(=O)Nc1nc(C)c(S(=O)(=O)NC(=O)NC2NC(=O)NC2=O)s1 (stereo not given)		> 100 µM (inactive)	> 100 µM (inactive)	> 100 µM (inactive)	> 100 µM (inactive)	> 100 µM (inactive)	> 100 µM (inactive)	> 100 µM (inactive)	> 100 µM (inactive)	> 100 µM (inactive)	> 100 µM (inactive)	> 100 µM (inactive)	> 100 µM (inactive)	> 100 µM (inactive)	> 100 µM (inactive)	> 100 µM (inactive)	> 100 µM (inactive)	> 100 µM (inactive)	> 100 µM	> 100 µM (inactive)
CNc1nc(=O)c(C#N)c(-c2ccc(C)cc2)s1	> 100 µM (inactive)	> 100 µM (inactive)	> 100 µM (inactive)	> 100 µM (inactive)	> 100 µM (inactive)	> 100 µM (inactive)	> 100 µM (inactive)	35.6 µM (inactive)	> 100 µM (inactive)	> 100 µM (inactive)	> 100 µM (inactive)	> 100 µM (inactive)	> 100 µM (inactive)	> 100 µM (inactive)	> 100 µM (inactive)	> 100 µM (inactive)	> 100 µM (inactive)	> 100 µM (inactive)	> 100 µM	
COc1ccc(C(=O)N(C(=O)N2CCN(c3ccccc3)CC2)S(=O)(=O)c2ccccc2)cc1	22.2 µM (inactive)	28.4 µM (inactive)	27.2 µM (inactive)	13.6 µM (inactive)	19.7 µM (inactive)	30.5 µM (inactive)	14.5 µM (inactive)	20.3 µM (inactive)	31.9 µM (inactive)	31.6 µM (inactive)	28.2 µM (inactive)	19.8 µM (inactive)	25.3 µM (inactive)	29.5 µM (inactive)	13.7 µM (inactive)	52.6 µM (inactive)	24.7 µM (inactive)	24.3 µM (inactive)	27.8 µM	
CCN(CC)CCCC(C)Nc1cc(/C=C/c2ccc(Cl)cc2)nc2cc(N(C)C)ccc12 (stereo not given)	3.71 µM (inactive)	2.25 µM (inactive)	1.66 µM (inactive)	2.04 µM (inactive)	1.61 µM (inactive)		2.01 µM (inactive)		1.9 µM (inactive)	1.7 µM (inactive)		1.86 µM (inactive)	1.22 µM (inactive)	1.67 µM (inactive)		2.07 µM (inactive)	1.82 µM (inactive)	1.8 µM (inactive)	1.67 µM	
CC(C)(C)OC(=O)N(CCCCNC(=O)c1ccccc1)CCCNC(=O)c1ccccc1	> 100 µM (inactive)	> 100 µM (inactive)	> 100 µM (inactive)	90.6 µM (inactive)	> 100 µM (inactive)	> 100 µM (inactive)	> 100 µM (inactive)	> 100 µM (inactive)	> 100 µM (inactive)	> 100 µM (inactive)		> 100 µM (inactive)	> 100 µM (inactive)	> 100 µM (inactive)		> 100 µM (inactive)	> 100 µM (inactive)	> 100 µM (inactive)	> 100 µM	> 100 µM (inactive)
BrCC[P+](c1ccccc1)(c1ccccc1)c1ccccc1		1.91 µM (inactive)	6.49 µM (inactive)	4.75 µM (inactive)	4.15 µM (inactive)	6.5 µM (inactive)	8.11 µM (inactive)	4.37 µM (inactive)	30.8 µM (inactive)	4.8 µM (inactive)		3.1 µM (inactive)	18.3 µM (inactive)	2.84 µM (inactive)	4.23 µM (inactive)	9.42 µM (inactive)	21.4 µM (inactive)	1.98 µM (inactive)	32.7 µM	0.948 µM (active)
CN1CCN(c2n[nH]c(=O)c3c2nnn3Cc2ccccc2)CC1		> 100 µM (inactive)	> 100 µM (inactive)	71.6 µM (inactive)	> 100 µM (inactive)	> 100 µM (inactive)	> 100 µM (inactive)	> 100 µM (inactive)	> 100 µM (inactive)	> 100 µM (inactive)	> 100 µM (inactive)	> 100 µM (inactive)	> 100 µM (inactive)	> 100 µM (inactive)	> 100 µM (inactive)	> 100 µM (inactive)	> 100 µM (inactive)	15.5 µM (inactive)	> 100 µM	> 100 µM (inactive)
